Measurements from patent publication US20130158040A1, “DIAZAINDOLE INHIBITORS OF CRAC” (Hoffmann-La Roche Inc., priority 2011, published 2013).

system: Jurkat cell; experiment: Jurkat IL-2 Production Assay; type: cell-based; conditions: Homo sapiens; IL-2 production in Jurkat cells; 18 h~20 h incubation; serum/stimulant condition (1% FBS with PHA or 30% FBS with PMA/Ionomycin) not specified
Description: Jurkat IL-2 Production Assay
Jurkat cell (ATCC) was grown in RPMI 1640 with 10% FBS and 1% penicillin/streptomycin. The cell density was kept at 1.2˜1.8×10^6/mL in culture flask before seeding into culture plate, and the cell density in the plate was 0.5×10^6/[…]/well.
RPMI 1640 with 1% FBS or 30% FBS for high serum assay.
serial dilution was done in 100% DMSO, and intermediate dilution was done with RPMI 1640 medium with 1% FBS. The DMSO final concentration in culture well was 0.25%.
PHA (Sigma#L9017-10MG) was used for the assay with 1% FBS in culture medium, and added after 10 minutes exposure of cell to compound/DMSO. The PHA final concentration in culture well was 5 μg/mL. PMA (Sigma# P-8139 5MG)/Ionomycin (Sigma#10634-5MG) was used for the assay with 30% FBS in culture medium, and added at same time point as the 1% FBS culture assay. The final concentration of PMA was 50 ng/mL, and Ionomycin final concentration was 500 ng/mL.
at 37° C. with 5% CO2 and 95% humidity for 18 h˜20 h.
IC50 was calculated with the data analysis software XLfit4, General Pharmacology model 251.

| Structure (SMILES) | IC50 [nM] |
| --- | --- |
| Cc1cc(S(=O)(=O)N(C)C)ccc1-c1ncc2[nH]c(-c3c(F)cccc3Cl)cc2n1 [Example 1, 4-[6-(2-chloro-6-fluoro-phenyl)-5H-pyrrolo[3,2-d]pyrimidin-2-yl]-3,N,N-trimethyl-benzenesulfonamide] | 687 |
| Cn1nc(C(F)(F)F)cc1-c1cnc2[nH]c(-c3ccccc3Cl)cc2n1 [Example 2, 6-(2-Chloro-phenyl)-2-(2-methyl-5-trifluoromethyl-2H-pyrazol-3-yl)-5H-pyrrolo[2,3-b]pyrazine] | 766 |
| COC(=O)c1ccc(-c2cnc3[nH]c(-c4ccccc4Cl)cc3n2)c(C)c1 [Example 3, 4-[6-(2-Chloro-phenyl)-5H-pyrrolo[2,3-b]pyrazin-2-yl]-3-methyl-benzoic acid methyl ester] | 205 |
| Cc1cc(S(=O)(=O)N(C)C)ccc1-c1cnc2[nH]c(-c3ccccc3Cl)cc2n1 [Example 4, 4-(6-(2-Chlorophenyl)-5H-pyrrolo[2,3-b]pyrazin-2-yl)-N,N,3-trimethylbenzenesulfonamide] | 133 |
| Cn1nc(C(F)(F)F)cc1-c1cnc2[nH]c(-c3c(F)cccc3Cl)cc2n1 [Example 5, 6-(2-chloro-6-fluorophenyl)-2-(1-methyl-3-(trifluoromethyl)-1H-pyrazol-5-yl)-5H-pyrrolo[2,3-b]pyrazine] | 269 |
| Cn1nc(C(F)(F)F)cc1-c1cnc2[nH]c(C3CCCCC3)cc2n1 [Example 6, 6-Cyclohexyl-2-(1-methyl-3-(trifluoromethyl)-1H-pyrazol-5-yl)-5H-pyrrolo[2,3-b]pyrazine] | 681 |
| Cc1cc(S(=O)(=O)N(C)C)ccc1-c1cnc2[nH]c(C3CCCCC3)cc2n1 [Example 7, 4-(6-cyclohexyl-5H-pyrrolo[2,3-b]pyrazin-2-yl)-N,N,3-trimethylbenzenesulfonamide] | 184 |
